According to US6599917B1, “Quinuclidine compounds and drugs containing the same as the active ingredient” (priority 1999, dated 2003):

What was measured:
cholesterol biosynthesis [1] = assay: Measurement of cholesterol biosynthesis inhibitive activity in a rat liver cell; type: cell-based; conditions: isolated rat liver cells, [1-14C]acetic acid added 10 minutes after the specimen
Experimental: (§1) Measurement of Cholesterol and Triglyceride Biosynthesis Inhibitive Activities in a Rat Liver Cell
(§2) A liver cell was isolated from a male SD rat according to a usual method (collagenase perfusion method) and subjected to an experiment.
(§3) The isolated liver cells were planted in an amount of 500 μ1 every well on a Type collagen coated 24 well plate (cell density: 4×10^5 cell/ml). As the cell culture solution, a Williams'E medium (adjusted to pH 7.4) containing 10% FCS, 1 μM insulin, 1 μM dexamethasone, 100 units/ml penicillin and 10 μg/ml streptomycin was used. After the liver cells were incubated in a CO2 incubator for 2 hours, unstuck cells were removed and the liver cells were further incubated overnight.
(§4) After the culture medium was exchanged, the specimen diluted in a 10% DMSO-90% cell culture solution was added to each well in an amount of 5 μ1. DMSO (final concentration: 0.1%) was added to a control group. A [1-^14C]Acetic acid, sodium salt (5 μCi/well) was added to the media 10 minutes and 4 hours after the specimen was added for the measurement of cholesterol synthesis inhibitive action and for the measurement of triglyceride synthesis inhibitive action respectively, followed by culturing for further 2 hours.
(§5) After the cultivation was finished, the supernatant was removed and the cells were washed using PBS(−)(Phosphate buffered saline (Ca^2+, Mg^2+free) twice. Hexane/isopropyl alcohol (3:2, v/v) was added to the cells and the cells were then allowed to stand for 10 minutes to extract intracellular lipid. The extract was transferred to a glass tube and exsiccated under a nitrogen gas stream. Further, the exsiccated extract was washed with 25 mL of petroleum ether and then dissolved in petroleum ether containing the following components: 0.01% squalene, 0.3% free cholesterol, 0.3% cholesterol acetate, 0.1% triolein, 0.01% farnesol and 0.3% lanosterol.
(§6) The resulting solution was spotted on a TLC plate to perform an isolating operation. The spotted solution was developed for 10 minutes by using toluene/isopropyl ether (1:1, v/v) as the solvents and for further 15 minutes by using heptane in place of the above solvent after it was dried using air.
(§7) After the development was finished, the TLC plate was subjected to iodine color development. After each position of free cholesterol and triolein which were used as standards was confirmed, the image of the TLC plate was transferred to a BAS 2000 (Fuji Film) imaging plate by exposure performed for 16 hours. This transferred image was analyzed using a BAS 2000 IP Reader and an Imaging analyzer II to measure radiative activities contained in the free cholesterol and triglyceride fractions.
(§8) The cholesterol biosynthesis inhibitive activity was expressed by a concentration (IC50) at which 50% of the radiative activity of the control group was inhibited and the triceride biosynthesis inhibitive activity was expressed by an inhibition rate (%) to the control group.

[2] = test system: triglyceride biosynthesis; assay: Measurement of triglyceride biosynthesis inhibitive activity in a rat liver cell; type: cell-based; conditions: for Triglyceride biosynthesis inhibitive activity inhibition in 1 μM of the specimen: isolated rat liver cells, [1-14C]acetic acid added 4 hours after the specimen, inhibition rate to control group; for inhibition at 1 µM: Rattus norvegicus, 6 h, read-out: Triglyceride biosynthesis inhibitive activity inhibition in 1 μM of the specimen
Experimental: as §1, §2, §3, §4, §5, §6, §7, §8

[3] = molecular target: T1, squalene synthesizing enzyme (Rattus norvegicus, UniProt Q02769); assay: Measurement of squalene synthesizing enzyme inhibitive activity by using a rat liver microsome; type: biochemical; conditions: [3H]-farnesylpyrophosphoric acid
T1 construct: The liver was excised from a male Spraugue-Dawly rat; from tissue; host or cells: liver microsome fraction of male Sprague-Dawley rat (8 to 9 weeks)
T1 sequence (Q02769 1-416): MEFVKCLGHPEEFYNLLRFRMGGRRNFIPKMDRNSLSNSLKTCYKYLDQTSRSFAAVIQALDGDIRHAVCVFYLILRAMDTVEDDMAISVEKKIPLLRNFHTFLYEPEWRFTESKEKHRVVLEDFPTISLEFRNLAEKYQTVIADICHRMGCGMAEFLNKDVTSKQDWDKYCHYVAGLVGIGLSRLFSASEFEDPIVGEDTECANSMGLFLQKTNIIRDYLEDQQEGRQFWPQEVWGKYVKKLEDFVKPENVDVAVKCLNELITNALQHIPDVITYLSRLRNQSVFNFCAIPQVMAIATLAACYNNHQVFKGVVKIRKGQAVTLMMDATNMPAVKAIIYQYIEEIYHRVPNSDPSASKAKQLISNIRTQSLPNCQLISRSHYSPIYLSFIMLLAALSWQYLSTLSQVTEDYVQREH
Experimental: Measurement of Squalene Synthesizing Enzyme Inhibitive Activity by Using a Rat Liver Microsome
(I) The reaction was run on a scale of 500 μ1. 200 µl of a solution containing 125 mM tris-hydrochloric acid (pH: 7.3), 2.5 mM magnesium chloride, 5 mM potassium fluoride and 10 mM reduction type nicotinamidoadenine dinucleotide phosphoric acid, 100 µl of the specimen solution with a 5-fold concentration, 100 µl of distilled water and 50 µl of 0.4 to 1 mg/ml rat liver microsome prepared by the following method were mixed.
(II) The above mixture was pre-incubated at 37° C. for 10 minutes and thereafter, 50 µl of 100 μM [^3H]-farnesylpyrophosphoric acid (30 mCi/mmol, NEN) was added to the mixture to start a reaction. The reaction was continued at 37° C. for 10 minutes. 1 ml of ethanol was added to the resulting mixture to terminate the reaction and then 1 ml of distilled water and 3 ml of petroleum ether were added to the reaction solution, which was then shaken for 30 minutes. The water phase was separated from the oil phase, the water phase was frozen at −70° C. in dry ice/methanol and the radiative activity of the organic phase was measured using a liquid scintillator. Or the organic phase was evaporated to dryness using nitrogen gas and the residue was dissolved as a marker in 25 µl of chloroform containing squalene, farnesol and cholesterol. This sample was spotted on a TCL plate (Merck) and developed using heptane for 15 to 20 minutes. A band of squalene was cut from the plate to measure the radiative activity by using a liquid scintillation counter. The data was expressed by a concentration (IC50) at which 50% of the radiative activity of a control group was inhibited.
Method of the Preparation of a Rat Liver Microsome
The following operations were all carried out on ice and the centrifugation was performed at 4° C. The liver was excised from a male Spraugue-Dawly rat (hereinafter referred to as SD rat) (8 to 9 weeks age) and perfused with 1.15% potassium chloride to remove the blood. Then, the liver was minced using a forceps and the minced liver was homogenized using a Teflon homogenizer. The resulting sample was centrifuged at 16000×g twice for 15 minutes. The supernatant was further centrifuged at 105000×g for 60 minutes. The obtained deposit was determined as a microsome fraction, which was then suspended in a 25 mM tris-hydrochloric acid solution. The concentration of protein was measured quantitatively by a Bradford method and the concentration of protein was adjusted to 20 mg/ml by using the same solution. The resulting solution was stored at […].

cholesterol biosynthesis [4] = assay: Measurement of cholesterol biosynthesis inhibitive activity in a rat; type: in vivo; conditions: 2 h, male SD rat, oral, inhibition rate to control group
Experimental: Measurement of Cholesterol Biosynthesis Inhibitive Activity in a Rat
(I) An SPF grade male SD rat (4 weeks age, SLC) was bred for more than one week in a day-night-reversal room and subjected to an experiment made in the daytime. The compound dissolved in a 2% Tween 80 solution was administered (5 ml/kg) to the rat using an oral sonde. After one hour, a [1-^14C]Acetic acid, sodium salt (1.67-2.22 GBq/mmol, 37 MBq/ml, NEN) prepared by diluting to 1.85 MBq/ml by using physiological saline was intraabdominally administered (300 μ1/animal). After one hour, the rat was anesthetized by diethyl ether to carry out exsanguination from the aorta abdominalis. The collected blood was centrifuged at 3000 rpm for 10 minutes to prepare blood plasma.
(II) 1 ml of 4N KOH and 1 ml of ethanol were added to 2 ml of the blood plasma, which was then incubated at 65° C. for one hour and there after, 3 ml of petroleum ether was added. The plasma was shaken for 30 minutes. After the water phase was separated from the organic phase by centrifugation, it was frozen at −80° C. and the radiative activity of the organic phase was measured using a liquid scintillation counter. Or the organic phase was evaporated to dryness using nitrogen gas and the residue was dissolved as a marker in 25 µl of chloroform containing squalene, farnesol and cholesterol. This sample was applied to a TCL plate (Merck) and developed using toluene and isopropyl ether (1:1) for 15 to 20 minutes. A band of cholesterol was cut from the plate to measure the radiative activity by using a liquid scintillation counter. The cholesterol biosynthesis inhibition activity was expressed by an inhibition rate (%) to a control group.

Molecule	inhibition at 1 µM [2]	IC50 [3]	IC50 (cholesterol biosynthesis [1]; 10 min)	also measured
CO[C@H]1CN(c2ccc(C#C[C@@]3(O)CN4CCC3CC4)c(Cc3ccccc3)n2)C[C@H]1OC (relative stereo) [Example 120, (3R)-3-[2-Benzyl-6-(cis-3,4-dimethoxyprrolidine-1-yl)-3-pyridyl]ethynyl-3-quinuclidinol]				IC50 (cholesterol biosynthesis [1]): 75 nM; Triglyceride biosynthesis inhibitive activity inhibition in 1 μM of the specimen [2]: 80%
CO[C@H]1CN(c2ccc(C#C[C@@]3(O)CN4CCC3CC4)c(Cc3ccccc3)n2)C[C@H]1O [Example 106, (3R)-3-[2-Benzyl-6-[(3R,4S)-3-hydroxy-4-methoxypyrrolidine-1-yl)-3-pyridyl]ethynyl-3-quinuclidinol]	81%	6.9 nM		
CO[C@@H]1CN(c2ccc(C#C[C@@]3(O)CN4CCC3CC4)c(Cc3ccccc3)n2)C[C@@H]1F [Example 110]	84%	2.1 nM		
CO[C@@H]1CN(c2nc(Cc3ccccc3)c(C#C[C@@]3(O)CN4CCC3CC4)cc2Cl)C[C@H]1O [Example 116, (3R)-(3R)-3-[2-Benzyl-5-chloro-6[(3R,4R)-3-hydroxy-4-methoxypyrrolidine-1-yl]-3-pyridyl]ethynyl-3-quinuclidinol]		0.77 nM	72 nM	
CO[C@@H]1CN(c2nc(Cc3ccccc3)c(C#C[C@@]3(O)CN4CCC3CC4)cc2Br)C[C@H]1O [Example 117, (3R)-3-[2-Benzyl-5-bromo-6-[(3R,4R)-3-hydroxy-4-methoxypyrrolidine-1-yl]-3-pyridyl]ethynyl-3-quinuclidinol]		4.5 nM	79 nM	
O=C1N(c2ccc(C#C[C@@]3(O)CN4CCC3CC4)c(Cc3ccccc3)n2)CCC12OCCO2 [Example 138, (3R)-3-[2-Benzyl-6-(3,3-ethylenedioxy-2-pyrrolidinone-1-yl)-3-pyridyl]ethynyl-3-quinuclidinol]		0.35 nM	14 nM	
COC(C)COc1ccc(C#C[C@@]2(O)CN3CCC2CC3)c(Cc2ccccc2)n1 (stereo partly drawn) [Example 148, (3R)-3-[2-Benzyl-6-(2-methoxypropyl)oxy-3-pyridyl]ethynyl-3-quinuclidinol]			160 nM	inhibition in vivo at 3 mg/kg (cholesterol biosynthesis [4]; dose 3 mg/kg): 92%
COC(C)COc1ccc(C#C[C@]2(O)CN3CCC2CC3)c(Cc2ccccc2)n1 (stereo partly drawn) [Example 149, (3S)-3-[2-Benzyl-6-(2-methoxypropyl)oxy-3-pyridyl]ethynyl-3-quinuclidinol]			590 nM	
O[C@]1(C#Cc2ccc(OCCCF)nc2Cc2ccccc2)CN2CCC1CC2 [Example 150, (3R)-3-[2-Benzyl-6-(3-fluoropropyl)oxy-3-pyridyl]ethynyl-3-quinuclidinol]	80%			inhibition in vivo at 1 mg/kg (cholesterol biosynthesis [4]; dose 1 mg/kg): 73%
OCCCOc1ccc(C#C[C@@]2(O)CN3CCC2CC3)c(Cc2ccccc2)n1 [Example 166, (3R)-3-[2-Benzyl-6-(3-hydroxypropyl)oxy-3-pyridyl]ethynyl-3-quinclidinol]	82%	15 nM		
O[C@]1(C#Cc2cnc(-c3cccnc3)cc2Cc2ccccc2)CN2CCC1CC2 [Example 176, (3R)-3-[4-Benzyl-2-(3-pyridyl)-5-pyridyl]ethynyl-3-quinuclidinol]	74%			
O[C@]1(C#Cc2cnc(-c3ccccn3)cc2Cc2ccccc2)CN2CCC1CC2 [Example 179, (3R)-3-[4-Benzyl-2-(2-pyridyl)-5-pyridyl]ethynyl-3-quinuclidinol]	84%		130 nM	
O[C@]1(C#Cc2cnc(C3=COCCO3)cc2Cc2ccccc2)CN2CCC1CC2 [Example 186, (3R)-3-[4-Benzyl-2-(1,4-dioxene-2-yl)-5-pyridyl]ethynyl-3-quinuclidinol]				IC50 (cholesterol biosynthesis [1]): 69 nM
(3R)-3-[4-Benzyl-2-[(3R,4R)-3-hydroxy-4-methoxypyrrolidine-1-yl]-3-pyrimidyl]ethynyl-3-quinuclidinol [Example 201]		1.6 nM		Triglyceride biosynthesis inhibitive activity inhibition in 1 μM of the specimen [2]: 85%
